Results published in patent US9023789B2, “Amylin analogs and pharmaceutical compositions thereof” (Novo Nordisk A/S, priority 2012, dated 2015).
pIC50: −log10 of the molar value. Numbered stars: 1 amine (or outer) side, 2 acyl side, 3 side chain; on linkers, the order of the positions; unused ones are H or OH. Bridge positions count the residues as written; N and C are the ends. Peptide text beside a SMILES is read from it. * marks the point of attachment. C20 diacid = O=C(O)CCCCCCCCCCCCCCCCCCC(=O)*; γGlu = O=C(O)[C@H](CCC(=O)[*:2])N[*:1]

Key:
[1] = target: T1, human amylin 3(a) receptor (human calcitonin receptor + RAMP-3) in BHK570 cells (Homo sapiens, UniProt O60896+P30988); assay: ASSAY (II)a functional assay, human amylin receptor (CRE luciferase); assay type: cell-based
T1 construct: expressed in transfected cells
Source text: 1. Luciferase Assay Outline
Activation of calcitonin and amylin (coexpression of calcitonin receptor and receptor activity modifying proteins (RAMP)) receptors lead to increased intracellular concentrations of cAMP. Consequently, transcription is activated by promoters containing multiple copies of the cAMP response element (CRE). It is thus possible to measure amylin activity by the use of a CRE luciferase reporter gene introduced into BHK cells also expressing calcitonin or amylin receptors.
2. Construction of Calcitonin (a)- and Amylin 3(a)-Receptor/CRE-Luc Cell Line.
The cell line was further transfected with RAMP-3, using standard methods. This turns the calcitonin receptor into an amylin 3(a) receptor. Methotrexate, Neomycin, and Hygromycin are selection markers for luciferase, the calcitonin receptor, and RAMP-3, respectively.
To perform activity assays, BHK calcitonin (a) receptor- or amylin 3(a)-receptor/CRE-luc cells were seeded in white 96 well culture plates at a density of about 20.000 cells/well. […] After incubation overnight at 37° C. and 5% CO2, the growth medium was replaced by 50 μl/well assay medium (DMEM (without phenol red), Glutamax™, 10% FBS, and 10 mM Hepes, pH 7.4). Further, 50 μl/well of standard or sample in assay buffer were added. After 3 hours incubation at 37° C. and 5% CO2, the assay medium with standard or sample were removed and replaced by 100 μl/well PBS. Further, 100 μl/well LucLite™ was added. The plates were sealed and incubated at room temperature for 30 minutes. Finally, luminescence was measured on a TopCounter (Packard) in SPC (single photon counting) mode.

[2] = target: T2, human amylin receptor (membranes from Amylin 3(a)/CRE-luc cells) (Homo sapiens, UniProt O60896+P30988); assay: ASSAY (V) binding to the human amylin receptor (SPA, 125I-rat amylin);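 further: competition binding of cell membranes (35 ng/µL) mixed with SPA beads in 384-well plates at 40 µL total volume, read by scintillation counting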
T2 construct: expressed in transfected cells
T2 sequence (P30988 25-474): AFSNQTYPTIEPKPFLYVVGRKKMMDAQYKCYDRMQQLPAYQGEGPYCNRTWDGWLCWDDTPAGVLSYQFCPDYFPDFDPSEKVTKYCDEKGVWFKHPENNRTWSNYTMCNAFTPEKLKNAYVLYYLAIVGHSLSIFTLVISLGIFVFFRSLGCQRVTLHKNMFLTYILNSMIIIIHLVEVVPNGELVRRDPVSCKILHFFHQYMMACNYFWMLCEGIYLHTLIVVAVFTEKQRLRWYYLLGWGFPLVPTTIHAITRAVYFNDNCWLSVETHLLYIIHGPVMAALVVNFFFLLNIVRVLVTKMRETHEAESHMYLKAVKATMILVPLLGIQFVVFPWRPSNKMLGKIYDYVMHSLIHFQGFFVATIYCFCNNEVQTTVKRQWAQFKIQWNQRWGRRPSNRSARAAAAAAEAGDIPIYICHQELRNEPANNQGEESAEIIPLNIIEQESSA
T2 sequence (O60896 24-148 partner): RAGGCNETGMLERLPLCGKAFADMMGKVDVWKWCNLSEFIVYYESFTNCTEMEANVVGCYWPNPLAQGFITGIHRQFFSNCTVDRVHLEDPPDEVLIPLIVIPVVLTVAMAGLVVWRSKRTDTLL

[3] = target: T3, rat amylin receptor (rat calcitonin receptor + rat RAMP 3) (Rattus norvegicus, UniProt P32214+Q9JJ73); assay: ASSAY (VI) binding to the rat amylin receptor; conditions: Table 7
T3 construct: expressed in transfected cells; host or cells: BHK tk'ts 13 (transient, FuGENE 6), membranes
T3 sequence (P32214 25-479 isoform P32214-2 limits assumed): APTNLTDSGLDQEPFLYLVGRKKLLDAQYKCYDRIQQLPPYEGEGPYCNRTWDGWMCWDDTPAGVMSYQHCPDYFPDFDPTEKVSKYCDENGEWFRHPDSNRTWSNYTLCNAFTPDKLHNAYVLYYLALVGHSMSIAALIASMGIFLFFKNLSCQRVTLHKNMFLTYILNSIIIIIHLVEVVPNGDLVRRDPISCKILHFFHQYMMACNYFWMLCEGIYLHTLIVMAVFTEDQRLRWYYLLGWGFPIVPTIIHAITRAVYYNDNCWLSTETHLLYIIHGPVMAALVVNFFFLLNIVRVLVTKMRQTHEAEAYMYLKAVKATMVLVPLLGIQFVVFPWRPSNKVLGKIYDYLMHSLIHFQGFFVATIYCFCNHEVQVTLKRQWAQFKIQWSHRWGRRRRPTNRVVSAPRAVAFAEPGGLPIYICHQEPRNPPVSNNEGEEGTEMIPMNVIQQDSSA
T3 sequence (Q9JJ73 23-147 partner): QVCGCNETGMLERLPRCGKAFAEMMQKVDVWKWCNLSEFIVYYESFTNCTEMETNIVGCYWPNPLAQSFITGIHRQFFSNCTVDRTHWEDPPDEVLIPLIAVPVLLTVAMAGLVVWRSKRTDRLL
Protocol: Assay (VI)—Determination of the Binding to the Rat Amylin Receptor […] The BHK tk′ts 13 cells were transiently transfected with rat calcitonin receptor using FuGENE® 6 (Roche), according to the manufacturer's recommendations. […] Approximately 48 hours after transfection, the cells were harvested and membranes were prepared.

- Ratio hCT/hAmylin funct. ([1]; hCTR funct. EC50 / hAmylin-R funct. EC50): 1.0
- Ratio hCT/hAmylin funct. ([1]; hCTR funct. EC50 over hAmylin-R funct. EC50): 1.0
- Ratio hCT/hAmylin funct. ([1]; human functional selectivity: hCTR funct. EC50 / hAmylin-R funct. EC50): 1.0
- Ratio hCT/hAmylin binding ([2]; Table 5, selectivity, hCTR bind IC50 / hAmylin-R bind IC50): 1.4
- Ratio hCT/hAmylin binding ([2]; Table 7, human binding selectivity, included for comparison): 1.4
- pIC50 ([3]; binding to rat amylin receptor, read-out: rAmylin-R bind IC50): 8.89
- Ratio rCT/rAmylin binding ([3]; rat binding selectivity, rCTR IC50 / rAmylin-R IC50): 3.6
SMILES: CC(C)C[C@H](NC(=O)[C@H](CCCNC(=N)N)NC(=O)[C@H](CCC(N)=O)NC(=O)[C@@H](NC(=O)[C@H](C)NC(=O)[C@@H]1CSSC[C@H](NC(=O)[C@H](CCCCN)NC(=O)CC[C@H](NC(=O)CCCCCCCCCCCCCCCCCCC(=O)O)C(=O)O)C(=O)N[C@@H](CC(N)=O)C(=O)N[C@@H]([C@@H](C)O)C(=O)N[C@@H](C)C(=O)N[C@@H]([C@@H](C)O)C(=O)N1)[C@@H](C)O)C(=O)N[C@@H](C)C(=O)N[C@@H](CCC(=O)O)C(=O)N[C@@H](Cc1ccccc1)C(=O)N[C@@H](CC(C)C)C(=O)N[C@@H](CCCNC(=N)N)C(=O)N[C@@H](Cc1c[nH]cn1)C(=O)N[C@@H](CO)C(=O)N[C@@H](CO)C(=O)N1CCC[C@H]1C(=O)N[C@@H](CC(N)=O)C(=O)N[C@@H](Cc1ccccc1)C(=O)NCC(=O)N[C@@H](C)C(=O)N1CCC[C@H]1C(=O)N[C@@H](CC(C)C)C(=O)N[C@@H](CO)C(=O)N[C@@H](CO)C(=O)N[C@H](C(=O)N[C@@H](CC(N)=O)C(=O)N[C@H](C(=O)NCC(=O)N[C@@H](CO)C(=O)N[C@@H](CC(N)=O)C(=O)N[C@H](C(=O)N1CCC[C@H]1C(N)=O)[C@@H](C)O)C(C)C)[C@@H](C)O [Example 5] ({C20 diacid-γGlu}-KCNTATCATQRLAEFLRHSSPNFGAPLSSTNVGSNTP-NH2; disulfide 2-7)
